Measured values published in patent US20250011351A1, “[…] O-ACETYLPSILOCIN, SALTS AND SOLID STATE FORMS THEREOF” (Terran Biosciences Inc., priority 2021, published 2025).

Experiment: Humidity exposure (RH jars, hygroscopicity test; handling at ambient humidity)
Format: physicochemical
Experimental: Solids deliquesced within approx. 1 hour of exposure to elevated relative humidity. The sample was capped and placed in a freezer for storage.

In the case of CC(=O)Oc1cccc2[nH]cc(CCN(C)C)c12.O=P(O)(O)O [phosphate salt (Forms A+B), O-acetyl psilocin phosphate], the deliquescence (65% RH) is reported as “deliquesce” and the hygroscopicity (evaluation using RH jars) is reported as “low”.

For Psilocybin Mesylate, the “behaviour when handled at ambient humidity” value (ambient humidity (~50-60%)) was “became tacky and deliquesced”.

In the case of CC(=O)Oc1cccc2[nH]cc(CCN(C)C)c12.O=C(O)/C=C\C(=O)O [non-crystalline maleate salt, O-acetyl psilocin maleate], the “physical stability of the non-crystalline material” value (ambient relative humidity (50% RH in summertime)) is reported as “unstable”.

CC(=O)Oc1cccc2[nH]cc(CCN(C)C)c12.Cl [O-acetyl psilocin hydrochloride] showed a time to deliquescence (open vial inside a 75% RH jar (hygroscopicity test)) of no more than 1 h.
